According to ChEMBL document CHEMBL1697821, “Development of a phospholipidosis database and predictive quantitative structure-activity relationship (QSAR) models” (Toxicol Mech Methods, 2008):

Each compound was assayed on Phospholipidosis (assay: Literature-mined public compounds from Kruhlak et al phospholipidosis modelling dataset).

Row | Compound | Phospholipidosis
1 | C[C@]12C=CC(=O)C=C1CC[C@@H]1[C@@H]2CC[C@@]2(C)[C@H]1CC[C@]2(C)O [METHANDROSTENOLONE] | Negative: based on the absence of positive reported data from WMDD
2 | COc1ccccc1OCC(O)COC(N)=O (stereo not given) [METHOCARBAMOL] | Negative: based on the absence of positive reported data from WMDD
3 | C[C@](N)(Cc1ccc(O)c(O)c1)C(=O)O [METHYLDOPA] | Negative: confirmed by electron microscopy
4 | COC(=O)c1ccc(O)cc1 [METHYLPARABEN] | Negative: based on the absence of positive reported data from WMDD
5 | CCC1(CC)C(=O)NCC(C)C1=O (stereo not given) [METHYPRYLON] | Negative: based on the absence of positive reported data from WMDD
6 | CO[C@H]1[C@@H](O)C[C@H](O[C@H]2[C@@H](O)C[C@H](O[C@H]3[C@@H](O)C[C@H](O[C@H]4CC[C@@]5(C)[C@H](CC[C@@H]6[C@@H]5C[C@@H](O)[C@]5(C)[C@@H](C7=CC(=O)OC7)CC[C@]65O)C4)O[C@@H]3C)O[C@@H]2C)O[C@@H]1C [METILDIGOXIN] | Negative: based on the absence of positive reported data from WMDD
7 | COc1ccc2cc1Oc1cc3c(cc1OC)CC[N+](C)(C)[C@H]3Cc1ccc(cc1)Oc1c(OC)c(OC)cc3c1[C@@H](C2)[N+](C)(C)CC3 [METOCURINE] | Negative: based on the absence of positive reported data from WMDD
8 | COCCc1ccc(OCC(O)CNC(C)C)cc1 (stereo not given) [METOPROLOL] | Negative: based on the absence of positive reported data from WMDD
9 | CC(=O)Nc1c(I)c(C(=O)O)c(I)c(N(C)C(C)=O)c1I [METRIZOIC ACID] | Negative: based on the absence of positive reported data from WMDD
10 | Cc1ncc([N+](=O)[O-])n1CCO [METRONIDAZOLE] | Negative: based on the absence of positive reported data from WMDD
11 | CC(C)(C(=O)c1cccnc1)c1cccnc1 [METYRAPONE] | Negative: based on the absence of positive reported data from WMDD
12 | CC1(C)S[C@@H]2[C@H](NC(=O)[C@H](NC(=O)N3CCN(S(C)(=O)=O)C3=O)c3ccccc3)C(=O)N2[C@H]1C(=O)O [MEZLOCILLIN] | Negative: based on the absence of positive reported data from WMDD
13 | CN1CCN2c3ccccc3Cc3ccccc3C2C1 (stereo not given) [MIANSERIN] | Positive: weak inducer based on presence of foamy macrophages and cytoplasmic vacuolations
14 | Cc1ncc2n1-c1ccc(Cl)cc1C(c1ccccc1F)=NC2 [MIDAZOLAM] | Negative: based on the absence of positive reported data from WMDD
15 | CCCCC(C)(O)C/C=C/[C@H]1[C@H](O)CC(=O)[C@@H]1CCCCCCC(=O)OC (stereo not given in full) [MISOPROSTOL] | Negative: based on the absence of positive reported data from WMDD
16 | O[C@@H]([C@H](O)[C@H](O)CBr)[C@H](O)CBr [MITOBRONITOL] | Negative: based on the absence of positive reported data from WMDD
17 | NC(=O)C[S+]([O-])C(c1ccccc1)c1ccccc1 (stereo not given) [MODAFINIL] | Negative: based on the absence of positive reported data from WMDD
18 | CCOC(=O)[C@H](CCc1ccccc1)N[C@@H](C)C(=O)N1Cc2cc(OC)c(OC)cc2C[C@H]1C(=O)O [MOEXIPRIL] | Negative: based on the absence of positive reported data from WMDD
19 | CCc1c(C)[nH]c2c1C(=O)C(CN1CCOCC1)CC2 (stereo not given) [MOLINDONE] | Negative: based on the absence of positive reported data from WMDD
20 | CCOC(=O)Nc1ccc2c(c1)N(C(=O)CCN1CCOCC1)c1ccccc1S2 [MORICIZINE] | Negative: based on the absence of positive reported data from WMDD

Row | Compound | Phospholipidosis
21 | CC(=O)Oc1cc(C(C)C)c(OCCN(C)C)cc1C [MOXISYLYTE] | Negative: based on the absence of positive reported data from WMDD
22 | CCn1cc(C(=O)O)c(=O)c2ccc(C)nc21 [NALIDIXIC ACID] | Negative: based on the absence of positive reported data from WMDD
23 | C[C@]12CC[C@H]3[C@@H](CCC4=CC(=O)CC[C@@H]43)[C@@H]1CC[C@@H]2O [NANDROLONE] | Negative: based on the absence of positive reported data from WMDD
24 | C[C@@H]1C/C=C/C=C/C=C/C=C/[C@H](O[C@@H]2O[C@H](C)[C@@H](O)[C@H](N)[C@@H]2O)C[C@@H]2O[C@](O)(C[C@@H](O)C[C@H]3O[C@@H]3/C=C/C(=O)O1)C[C@H](O)[C@H]2C(=O)O [NATAMYCIN] | Negative: based on the absence of positive reported data from WMDD
25 | CCc1nn(CCCN2CCN(c3cccc(Cl)c3)CC2)c(=O)n1CCOc1ccccc1 [NEFAZODONE] | Negative: based on the absence of positive reported data from WMDD
26 | CCN[C@@H]1C[C@H](N)[C@@H](O[C@H]2OC(CN)=CC[C@H]2N)[C@H](O)[C@H]1O[C@H]1OC[C@](C)(O)[C@H](NC)[C@H]1O [NETILMICIN] | Positive: strong inducer confirmed by electron microscopy
27 | O=C(O)c1cccnc1 [NIACIN] | Negative: based on the absence of positive reported data from WMDD
28 | O=C(OC[C@H]1O[C@](O)(COC(=O)c2cccnc2)[C@@H](OC(=O)c2cccnc2)[C@@H]1OC(=O)c1cccnc1)c1cccnc1 [NICOFURANOSE] | Negative: based on the absence of positive reported data from WMDD
29 | CN1C(=O)CN=C(c2ccccc2)c2cc([N+](=O)[O-])ccc21 [NIMETAZEPAM] | Negative: based on the absence of positive reported data from WMDD
30 | COCCOC(=O)C1=C(C)NC(C)=C(C(=O)OC(C)C)C1c1cccc([N+](=O)[O-])c1 (stereo not given) [NIMODIPINE] | Negative: based on the absence of positive reported data from WMDD
31 | O=C1CN=C(c2ccccc2)c2cc([N+](=O)[O-])ccc2N1 [NITRAZEPAM] | Negative: based on the absence of positive reported data from WMDD
32 | CCOC(=O)C1=C(C)NC(C)=C(C(=O)OC)C1c1cccc([N+](=O)[O-])c1 (stereo not given) [NITRENDIPINE] | Negative: based on the absence of positive reported data from WMDD
33 | O=C1CN(/N=C/c2ccc([N+](=O)[O-])o2)C(=O)N1 [NITROFURANTOIN] | Negative: based on the absence of positive reported data from WMDD
34 | CN1Cc2c(N)cccc2C(c2ccccc2)C1 (stereo not given) [NOMIFENSINE] | Negative: based on the absence of positive reported data from WMDD
35 | Clc1ccc(C(c2ccccc2)N2CCNCC2)cc1 (stereo not given) [NORCHLORCYCLIZINE] | Positive: strong inducer confirmed by electron microscopy
36 | CC[C@]1(O)CC[C@H]2[C@@H]3CCC4=CC(=O)CC[C@@H]4[C@H]3CC[C@@]21C [NORETHANDROLONE] | Negative: based on the absence of positive reported data from WMDD
37 | C#C[C@]1(OC(C)=O)CC[C@H]2[C@@H]3CCC4=CC(=O)CC[C@@H]4[C@H]3CC[C@@]21C [NORETHINDRONE ACETATE] | Negative: based on the absence of positive reported data from WMDD
38 | CNCCC=C1c2ccccc2CCc2ccccc21 [NORTRIPTYLINE] | Positive: strong inducer confirmed by electron microscopy
39 | CO[C@@H]1[C@@H](OC(N)=O)[C@@H](O)[C@H](Oc2ccc3c(O)c(NC(=O)c4ccc(O)c(CC=C(C)C)c4)c(=O)oc3c2C)OC1(C)C [NOVOBIOCIN] | Negative: based on the absence of positive reported data from WMDD
40 | CN(C)CCON=C1c2ccccc2CCc2ccccc21 [NOXIPTILINE] | Positive: weak inducer based on presence of foamy macrophages and cytoplasmic vacuolations
